Measurements from US5475010A, “7'-amino-naphthazarin antibiotic derivatives” (Gruppo Lepetit S.p.A., priority 1991, dated 1995).
≈ marks a conversion by molar mass, not a printed value. Where two headings read alike, the source gives them in different places.

Tests used:
Format in all cases: cell-based
[1] = tested on: Streptococcus pyogenes C 203; test: MIC by broth microdilution, Streptococcus pyogenes; details: C203
[2] = tested on: Escherichia coli SKF 12140; test: MIC by broth microdilution, Escherichia coli; details: SKF12140
[3] = tested on: Streptococcus pneumonieae UC 41; test: MIC by broth microdilution, Streptococcus pneumoniae
[4] = tested on: Tricophyton mentagrophytes; test: MIC by broth microdilution, Trichophyton mentagrophytes; details: 72 h
[5] = tested on: Staphilococcus epidermidis ATCC 12228; test: MIC by broth microdilution, Staphylococcus epidermidis
[6] = tested on: Staphilococcus aureus Tour; test: MIC by broth microdilution, Staphylococcus aureus Tour; details: Iso-Sensitest broth, 37° C., 20-24 h, air
[7] = tested on: Staphilococcus haemolyticus (clin. isolate); test: MIC by broth microdilution, Staphylococcus haemolyticus
[8] = tested on: Enterococcus faecalis ATCC 7080; test: MIC by broth microdilution, Enterococcus faecalis
[9] = tested on: Proteus vulgaris X19H ATCC 881; test: MIC by broth microdilution, Proteus vulgaris; details: ATCC881
[10] = tested on: Pseudomonas aeruginosa ATCC 10145; test: MIC by broth microdilution, Pseudomonas aeruginosa; details: ATCC10145, Table 2, internal code 4, approx. 10^4 cfu/ml, Iso-Sensitest broth, 37° C., 20-24 h, air
[11] = tested on: Neisseria gonorrhoeae ISM 68/126; test: MIC by broth microdilution, Neisseria gonorrhoeae; details: ISM68/126, Table 2, internal code 997, approx. 10^4 cfu/ml, GC Base broth + 1% IsoVitaleX, 37° C., 48 h, 5% CO2
[12] = tested on: Propionibacterium acnes ATCC 6919; test: MIC by broth microdilution, Propionibacterium acnes; details: Cutibacterium acnes
[13] = tested on: Bacteroides fragiles ATCC 9689; test: MIC by broth microdilution, Bacteroides fragilis; details: ATCC9689, Table 2, internal code 1010, approx. 10^4 cfu/ml, Wilkins-Chalgren broth, 37° C., 48 h, N2-CO2-H2 (80:10:10)
[14] = tested on: Clostridium perfringens ISS 30543; test: microbe, parasite or virus in culture; details: ISS30543, 48 h
[15] = Table 2, internal code 165, + 30% bovine serum, read-out: MIC
[16] = Table 2, internal code 165, inoculum 10^6 cfu/ml
[17] = Table 2, internal code 165, inoculum approx. 10^4 cfu/ml
[18] = ATCC6919, Table 2, internal code 1014, approx. 10^4 cfu/ml, Wilkins-Chalgren broth, 37° C., 48 h, N2-CO2-H2 (80:10:10), read-out: MIC
[19] = Table 2, internal code 165, + 30% bovine serum

Row | SMILES | MIC [1] [µg/mL] | MIC [2] [µg/mL] | MIC [4] [µg/mL] | MIC [6, 15] [µg/mL] | MIC [6, 16] [µg/mL] | MIC [6, 17] [µg/mL] | MIC [9] [µg/mL] | MIC [10] [µg/mL] | MIC ([3]; UC41) [µg/mL] | MIC ([12]; ATCC6919, 48 h) [µg/mL] | MIC ([5]; ATCC12228) [µg/mL] | MIC [13] [µg/mL] | MIC [7] [µg/mL] | MIC ([8]; ATCC7080) [µg/mL] | MIC [12, 18] [µg/mL] | MIC [6, 19] [µg/mL] | MIC [14] [µg/mL] | also measured
1 | COC(=O)c1cc2cc3c(c(O)c2c(=O)o1)OC1(Cc2c(O)c4c(c(O)c2O1)C(=O)C(NCc1ccccc1)=CC4=O)CC3O (stereo not drawn) [Example 8] | 1 (≈ 1.63 µM) | > 128 | > 128 | 32 | 1 (≈ 1.63 µM) | 0.5 (≈ 0.815 µM) | > 128 | > 128 | – | – | – | – | – | – | – | – | – | MIC ([3]; UC41, Table 2, internal code 44, approx. 10^4 cfu/ml, Todd Hewitt broth, 37° C., 20-24 h, air, read-out: MIC): 0.06 µg/mL (≈ 0.0978 µM); MIC ([5]; ATCC12228, Table 2, internal code 147, approx. 10^4 cfu/ml, Iso-Sensitest broth, 37° C., 20-24 h, air, read-out: MIC): 0.13 µg/mL (≈ 0.212 µM); MIC ([7]; Table 2, internal code 602, approx. 10^4 cfu/ml, Iso-Sensitest broth, 37° C., 20-24 h, air, read-out: MIC): 0.13 µg/mL (≈ 0.212 µM); MIC ([8]; ATCC7080, Table 2, internal code 149, approx. 10^4 cfu/ml, Iso-Sensitest broth, 37° C., 20-24 h, air, read-out: MIC): 4 µg/mL (≈ 6.52 µM); MIC [11]: 0.25 µg/mL
2 | CCNC1=CC(=O)c2c(O)c3c(c(O)c2C1=O)OC1(C3)CC(O)c2cc3cc(C(=O)OC)oc(=O)c3c(O)c2O1 (stereo not drawn) [Example 10, 7'-ethylamino purpuromycin] | 0.06 (≈ 0.109 µM) | > 128 | – | 1 | 0.06 (≈ 0.109 µM) | 0.06 (≈ 0.109 µM) | > 128 | > 128 | 0.06 (≈ 0.109 µM) | 0.06 (≈ 0.109 µM) | 0.06 (≈ 0.109 µM) | 0.06 (≈ 0.109 µM) | 0.06 (≈ 0.109 µM) | 0.06 (≈ 0.109 µM) | – | – | – | MIC ([4]; Table 2, internal code 634, 1% (v/v) suspension of mycelia and conidia, YM broth, 30° C., air, read-out: MIC): ≤ 0.13 µg/mL
3 | COC(=O)c1cc2cc3c(c(O)c2c(=O)o1)OC1(Cc2c(O)c4c(c(O)c2O1)C(=O)C(NCC(F)(F)F)=CC4=O)CC3O (stereo not drawn) [Example 23, 7'-(2,2,2-trifluoroethylen)-amino purpuromycin] | 0.13 (≈ 0.215 µM) | > 128 | > 128 | – | 0.03 (≈ 0.0496 µM) | 0.016 (≈ 0.0264 µM) | > 128 | > 128 | 0.06 (≈ 0.0991 µM) | – | 0.016 (≈ 0.0264 µM) | 0.06 (≈ 0.0991 µM) | 0.016 (≈ 0.0264 µM) | 0.03 (≈ 0.0496 µM) | 0.008 (≈ 0.0132 µM) | 2 | 0.03 (≈ 0.0496 µM) | –
4 | COC(=O)c1cc2cc3c(c(O)c2c(=O)o1)OC1(Cc2c(O)c4c(c(O)c2O1)C(=O)C(N)=CC4=O)CC3O (stereo not drawn) [Example 25, 7'-Aminopurpuromycin] | 0.03 (≈ 0.0573 µM) | > 128 | – | – | 0.06 (≈ 0.115 µM) | 0.03 (≈ 0.0573 µM) | > 128 | > 128 | 0.016 (≈ 0.0306 µM) | – | 0.03 (≈ 0.0573 µM) | 0.06 (≈ 0.115 µM) | 0.06 (≈ 0.115 µM) | 0.06 (≈ 0.115 µM) | 0.008 (≈ 0.0153 µM) | 1 | – | –
5 | COC(=O)c1cc2cc3c(c(O)c2c(=O)o1)OC1(Cc2c(O)c4c(c(O)c2O1)C(=O)C(NCCO)=CC4=O)CC3O (stereo not drawn) [Example 21, 7'-(2-hydroxyethylen)-amino purpuromycin] | 0.03 (≈ 0.0529 µM) | ≥ 128 | ≥ 128 | – | 0.13 (≈ 0.229 µM) | 0.06 (≈ 0.106 µM) | ≥ 128 | ≥ 128 | 0.016 (≈ 0.0282 µM) | – | 0.06 (≈ 0.106 µM) | 0.13 (≈ 0.229 µM) | 0.13 (≈ 0.229 µM) | 0.06 (≈ 0.106 µM) | 0.004 (≈ 0.00705 µM) | 1 | – | –
6 | COC(=O)c1cc2cc3c(c(O)c2c(=O)o1)OC1(Cc2c(O)c4c(c(O)c2O1)C(=O)C(NCC#N)=CC4=O)CC3O (stereo not drawn) [Example 16, 7'-(cyanomethylen)amino purpuromycin] | 0.13 (≈ 0.231 µM) | > 128 | 128 (≈ 228 µM) | – | 0.13 (≈ 0.231 µM) | 0.13 (≈ 0.231 µM) | > 128 | > 128 | 0.03 (≈ 0.0533 µM) | 0.016 (≈ 0.0284 µM) | 0.13 (≈ 0.231 µM) | 0.5 (≈ 0.889 µM) | 0.13 (≈ 0.231 µM) | 0.13 (≈ 0.231 µM) | – | 2 | 0.13 (≈ 0.231 µM) | –
